Tested on: T1, MEK1 (platelet MEK; MEK1/2 not resolved)
T1 construct: gene MAP2K1
Assay: western blot of ERK1/[…] phosphorylation (MEK substrate) in CRP- or TRAP-6-stimulated washed human platelets
Format: cell-based

Structure (SMILES) | log10 IC50 (M) | IC50
O=C(c1ccc(F)c(F)c1Nc1ccc(I)cc1F)N1CC(O)([C@@H]2CCCCN2)C1 [Cobimetinib] | -9.5 | 
CC(=O)Nc1cccc(-n2c(=O)n(C3CC3)c(=O)c3c(Nc4ccc(I)cc4F)n(C)c(=O)c(C)c32)c1 [Trametinib] |  | −10.9 ± 0.43 (logIC50) log M
